The NIST ThermoML archive (doi:10.1021/acs.jced.9b00249)

How the values were obtained:
[1] = for mass density: isochoric method; for vapor or sublimation pressure: Diaphragm manometer
[2] = xn = mol fraction of the nth substance listed; settings: isochoric method

COC [dimethyl ether]
[1]
Settings	mass density [kg/m3]
382.8 K, 4580 kPa, Liquid	451
402.8 K, 8580 kPa, Gas	451
411.6 K, 10360 kPa, Gas	451
419.5 K, 12150 kPa, Gas	451
425.4 K, 13670 kPa, Gas	451
429.8 K, 14600 kPa, Gas	451
432.6 K, 15210 kPa, Gas	451
437.2 K, 16200 kPa, Gas	451

CCOCC [diethyl ether] + CCC
[2]
Settings	mass density [kg/m3]
351.8 K, 2080 kPa, Liquid, x2 = 0.748	474
359.2 K, 4110 kPa, Fluid (supercritical or subcritical phases), x2 = 0.748	474
362.8 K, 2080 kPa, Liquid, x2 = 0.651	474
369.5 K, 7470 kPa, Fluid (supercritical or subcritical phases), x2 = 0.748	474
370.3 K, 3910 kPa, Fluid (supercritical or subcritical phases), x2 = 0.651	474
372 K, 3100 kPa, Liquid, x2 = 0.743	401
379.4 K, 6660 kPa, Fluid (supercritical or subcritical phases), x2 = 0.651	474
379.4 K, 10830 kPa, Fluid (supercritical or subcritical phases), x2 = 0.748	474
382.7 K, 4110 kPa, Fluid (supercritical or subcritical phases), x2 = 0.743	401
387.9 K, 9300 kPa, Fluid (supercritical or subcritical phases), x2 = 0.651	474
390.1 K, 5340 kPa, Fluid (supercritical or subcritical phases), x2 = 0.743	401
391.1 K, 14590 kPa, Fluid (supercritical or subcritical phases), x2 = 0.748	474
394.9 K, 4010 kPa, Liquid, x2 = 0.655	401
397.1 K, 12250 kPa, Fluid (supercritical or subcritical phases), x2 = 0.651	474
399.9 K, 4420 kPa, Liquid, x2 = 0.742	311
401.1 K, 7670 kPa, Fluid (supercritical or subcritical phases), x2 = 0.743	401
401.1 K, 17840 kPa, Fluid (supercritical or subcritical phases), x2 = 0.748	474
401.9 K, 5030 kPa, Fluid (supercritical or subcritical phases), x2 = 0.655	401
405.6 K, 5640 kPa, Fluid (supercritical or subcritical phases), x2 = 0.655	401
407.5 K, 5130 kPa, Fluid (supercritical or subcritical phases), x2 = 0.742	311
407.7 K, 15710 kPa, Fluid (supercritical or subcritical phases), x2 = 0.651	474
409.2 K, 4620 kPa, Liquid, x2 = 0.651	311
410.7 K, 9710 kPa, Fluid (supercritical or subcritical phases), x2 = 0.743	401
411.4 K, 21600 kPa, Fluid (supercritical or subcritical phases), x2 = 0.748	474
412 K, 6760 kPa, Fluid (supercritical or subcritical phases), x2 = 0.655	401
417.7 K, 6250 kPa, Fluid (supercritical or subcritical phases), x2 = 0.742	311
418.5 K, 5130 kPa, Fluid (supercritical or subcritical phases), x2 = 0.651	311
419.2 K, 19360 kPa, Fluid (supercritical or subcritical phases), x2 = 0.651	474
419.7 K, 11640 kPa, Fluid (supercritical or subcritical phases), x2 = 0.743	401
422.6 K, 8790 kPa, Fluid (supercritical or subcritical phases), x2 = 0.655	401
429.1 K, 6250 kPa, Fluid (supercritical or subcritical phases), x2 = 0.651	311
429.1 K, 7570 kPa, Fluid (supercritical or subcritical phases), x2 = 0.742	311
429.6 K, 10210 kPa, Fluid (supercritical or subcritical phases), x2 = 0.655	401
430.4 K, 13770 kPa, Fluid (supercritical or subcritical phases), x2 = 0.743	401
437.5 K, 11740 kPa, Fluid (supercritical or subcritical phases), x2 = 0.655	401
437.5 K, 15300 kPa, Fluid (supercritical or subcritical phases), x2 = 0.743	401
437.8 K, 8590 kPa, Fluid (supercritical or subcritical phases), x2 = 0.742	311
438.5 K, 7270 kPa, Fluid (supercritical or subcritical phases), x2 = 0.651	311
447.3 K, 9710 kPa, Fluid (supercritical or subcritical phases), x2 = 0.742	311
447.6 K, 13670 kPa, Fluid (supercritical or subcritical phases), x2 = 0.655	401
449 K, 8390 kPa, Fluid (supercritical or subcritical phases), x2 = 0.651	311
452.4 K, 18650 kPa, Fluid (supercritical or subcritical phases), x2 = 0.743	401
455 K, 15200 kPa, Fluid (supercritical or subcritical phases), x2 = 0.655	401
458.5 K, 9500 kPa, Fluid (supercritical or subcritical phases), x2 = 0.651	311
459 K, 11220 kPa, Fluid (supercritical or subcritical phases), x2 = 0.742	311
466.1 K, 12150 kPa, Fluid (supercritical or subcritical phases), x2 = 0.742	311
467.4 K, 10620 kPa, Fluid (supercritical or subcritical phases), x2 = 0.651	311
470 K, 10930 kPa, Fluid (supercritical or subcritical phases), x2 = 0.651	311

CCOCC [diethyl ether]
[1], Liquid
Settings	vapor or sublimation pressure [kPa]
424.3 K	1790
434.3 K	2150
438.9 K	2390

[1], Liquid
Settings	mass density [kg/m3]
442.3 K, 3250 kPa	473
445.3 K, 3750 kPa	473
447.8 K, 4200 kPa	473
450.2 K, 4750 kPa	473
453.9 K, 5680 kPa	473
459.4 K, 6890 kPa	473

CCCCC [pentane]
Settings	vapor or sublimation pressure [kPa]
[1], 406.9 K, Liquid	1300

[1], Liquid
Settings	mass density [kg/m3]
417.1 K, 3060 kPa	484
428 K, 6070 kPa	484
436.6 K, 8340 kPa	484
446.3 K, 10730 kPa	484
453.2 K, 12730 kPa	484

CCC [propane]
[1], Liquid
Settings	vapor or sublimation pressure [kPa]
305.9 K	1030
319.2 K	1270
326.8 K	2260
334.3 K	2350
349.3 K	3040
362.1 K	3920
367.9 K	4440

[1], Gas
Settings	mass density [kg/m3]
383.7 K, 5980 kPa	292
397.4 K, 7350 kPa	292
402.9 K, 7940 kPa	292
434 K, 12760 kPa	292

CCCCC [pentane] + CCC
[2]
Settings	mass density [kg/m3]
319.6 K, 5320 kPa, Liquid, x2 = 0.849	507
320.4 K, 12800 kPa, Liquid, x2 = 0.512	567
324.9 K, 8620 kPa, Liquid, x2 = 0.849	507
326.1 K, 16230 kPa, Liquid, x2 = 0.512	567
328.6 K, 10330 kPa, Liquid, x2 = 0.849	507
331.8 K, 12010 kPa, Liquid, x2 = 0.849	507
332 K, 19720 kPa, Liquid, x2 = 0.512	567
336.2 K, 14280 kPa, Liquid, x2 = 0.849	507
337.7 K, 22920 kPa, Liquid, x2 = 0.512	567
340.8 K, 16310 kPa, Liquid, x2 = 0.849	507
341.2 K, 24970 kPa, Liquid, x2 = 0.512	567
345.3 K, 18250 kPa, Liquid, x2 = 0.849	507
349.2 K, 20380 kPa, Liquid, x2 = 0.849	507
353.6 K, 22340 kPa, Liquid, x2 = 0.849	507
357.2 K, 24290 kPa, Liquid, x2 = 0.849	507
394.8 K, 3250 kPa, Liquid, x2 = 0.551	401
397.7 K, 4520 kPa, Liquid, x2 = 0.78	311
404.7 K, 4010 kPa, Fluid (supercritical or subcritical phases), x2 = 0.551	401
406.5 K, 5640 kPa, Fluid (supercritical or subcritical phases), x2 = 0.78	311
409.3 K, 3610 kPa, Liquid, x2 = 0.474	384
410.5 K, 4620 kPa, Fluid (supercritical or subcritical phases), x2 = 0.551	401
416.5 K, 6760 kPa, Fluid (supercritical or subcritical phases), x2 = 0.78	311
418.3 K, 5640 kPa, Fluid (supercritical or subcritical phases), x2 = 0.551	401
419.2 K, 4730 kPa, Fluid (supercritical or subcritical phases), x2 = 0.474	384
428.6 K, 8280 kPa, Fluid (supercritical or subcritical phases), x2 = 0.78	311
428.9 K, 6560 kPa, Fluid (supercritical or subcritical phases), x2 = 0.474	384
437.3 K, 9610 kPa, Fluid (supercritical or subcritical phases), x2 = 0.78	311
439.5 K, 8280 kPa, Fluid (supercritical or subcritical phases), x2 = 0.474	384
447.3 K, 10720 kPa, Fluid (supercritical or subcritical phases), x2 = 0.78	311
449.2 K, 10010 kPa, Fluid (supercritical or subcritical phases), x2 = 0.474	384
456.4 K, 12260 kPa, Fluid (supercritical or subcritical phases), x2 = 0.78	311
